Results reported in PubChem BioAssay (NCI).
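Briefly, cells in 96-well plates were exposed to five compound concentrations for 48 h, and endpoints were estimated by linear interpolation. GI50 = concentration required for 50% inhibition of growth. TGI denotes the concentration required for complete inhibition of growth.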

Tests used:
Test in all cases: NCI anticancer screen, dose series, 48 h
ACHN renal = system: ACHN renal
OVCAR-5 ovarian = system: OVCAR-5 ovarian
UO-31 renal = system: UO-31 renal
PC-3 prostate = system: PC-3 prostate
SR leukemia = system: SR leukemia
HT29 colon = system: HT29 colon
COLO 205 colon = system: COLO 205 colon
SN12C renal = system: SN12C renal
SF-268 CNS = system: SF-268 CNS
NCI-H226 lung = system: NCI-H226 lung

| Compound | TGI (ACHN renal) | TGI (OVCAR-5 ovarian) | TGI (UO-31 renal) | TGI (PC-3 prostate) | TGI (SR leukemia) | TGI (HT29 colon) | TGI (COLO 205 colon) | TGI (SN12C renal) | TGI (SF-268 CNS) | TGI (NCI-H226 lung) | GI50 (OVCAR-5 ovarian) | GI50 (UO-31 renal) | GI50 (PC-3 prostate) | GI50 (ACHN renal) | GI50 (HT29 colon) | GI50 (COLO 205 colon) | GI50 (SN12C renal) | GI50 (NCI-H226 lung) | GI50 (SR leukemia) | GI50 (SF-268 CNS) |
| --- | --- | --- | --- | --- | --- | --- | --- | --- | --- | --- | --- | --- | --- | --- | --- | --- | --- | --- | --- | --- |
| Cc1cn2c(C)csc2c1P(=O)(OC(C)C)OC(C)C | > 100 µM | > 100 µM | > 100 µM | > 100 µM | > 100 µM | > 100 µM | > 100 µM | > 100 µM | > 100 µM | – | – | – | – | – | – | – | – | – | – | – |
| COC(=O)c1cc(C)ccc1CC(Cc1ccc(C)cc1)C(=O)OC (centres undefined) | > 100 µM | > 85.4 µM | > 100 µM | > 100 µM | > 100 µM | 80.4 µM | > 100 µM | > 100 µM | > 35.3 µM | > 100 µM | – | – | – | – | – | – | – | – | – | – |
| COC(=O)C1=C(C)NC(C)=C([N+](=O)[O-])C1c1cccc(N=O)c1 (centres undefined) | 24.8 µM | 30.5 µM | 24.8 µM | 32.9 µM | > 100 µM | 33.1 µM | 29 µM | 34.5 µM | 32 µM | 63.4 µM | – | – | – | – | – | – | – | – | – | – |
| c1csc(-c2c3ccc(=[N+]4CCCCC4)cc-3oc3cc(N4CCCCC4)ccc23)c1 | – | 0.733 µM | 0.277 µM | 0.177 µM | – | – | – | – | – | – | 0.202 µM | 0.136 µM | 0.0373 µM | – | – | – | – | – | – | – |
| Cc1cc2nc(-c3cc(C(C)(C)C)c(O)c(C(C)(C)C)c3)[nH]c2cc1C | > 24.6 µM | > 100 µM | > 27.4 µM | > 100 µM | > 31.7 µM | > 100 µM | > 100 µM | > 100 µM | > 100 µM | > 100 µM | – | – | – | – | – | – | – | – | – | – |
| CC12CC1C(c1cccc([N+](=O)[O-])c1)(c1cccc([N+](=O)[O-])c1)N=N2 (centres undefined) | 29.4 µM | > 100 µM | 23.8 µM | 88.8 µM | 55.8 µM | > 100 µM | 41.5 µM | 55 µM | > 100 µM | > 100 µM | – | – | – | – | – | – | – | – | – | – |
| COc1ccc(/C=N/N2C(=O)c3c(N)c(C#N)c(-c4ccccc4)c(-c4ccccc4)c3C2=O)cc1 | > 100 µM | > 100 µM | > 100 µM | > 100 µM | > 100 µM | – | > 100 µM | > 100 µM | > 100 µM | > 100 µM | – | – | – | – | – | – | – | – | – | – |
| C=C(C)[C@@]1(O[Si](C)(C)C)CCCC[C@@H]1CC(Sc1ccccc1)Sc1ccccc1 | 28.8 µM | 30.3 µM | 27.3 µM | 27.4 µM | 31.5 µM | 34.8 µM | 38.9 µM | – | 28.2 µM | 32.2 µM | – | – | – | – | – | – | – | – | – | – |
| O=C([CH-]C(=O)c1ccccc1)c1ccccc1.O=C([CH-]C(=O)c1ccccc1)c1ccccc1.[O]=[U+2]=[O] | 11.9 µM | – | – | – | – | 7.71 µM | 4.71 µM | 18.7 µM | – | – | – | – | – | 3.39 µM | 2.39 µM | 2.11 µM | 3.33 µM | – | – | – |
| O=c1n(Cc2ccccc2)c(=O)n2c(=O)n(Cc3ccccc3)c(=O)n12 | > 100 µM | – | > 100 µM | – | > 100 µM | > 100 µM | > 100 µM | > 100 µM | > 100 µM | > 100 µM | – | – | – | – | – | – | – | – | – | – |
| Clc1ccc(Cl)c(SCCCN2CCNCC2)c1 | 31.1 µM | 32.5 µM | 30.1 µM | 29.7 µM | – | 37.7 µM | 38.4 µM | 37.8 µM | 33.9 µM | 43.4 µM | – | – | – | – | – | – | – | – | – | – |
| COc1cc2c(c(O)c1O)-c1ccc(OC)c(=O)cc1C(NC(C)=O)CC2 (centres undefined) | > 100 µM | > 100 µM | > 100 µM | – | 74.3 µM | > 70.3 µM | 12.6 µM | > 80.8 µM | > 100 µM | 92.7 µM | – | – | – | – | – | – | – | – | – | – |
| Cc1ccc(-c2c(C#N)c(-c3ccc([N+](=O)[O-])cc3)c(C#N)c(=O)n2NS(=O)(=O)c2ccccc2)cc1 | > 100 µM | > 100 µM | – | > 100 µM | – | > 100 µM | > 100 µM | > 100 µM | > 100 µM | > 100 µM | – | – | – | – | – | – | – | – | – | – |
| COc1ccc(-c2csc(NC(=O)CSc3nc(C)c(-c4ccccc4)n3Nc3ccccc3)n2)cc1 | > 100 µM | > 100 µM | > 100 µM | > 100 µM | > 100 µM | – | > 100 µM | > 100 µM | > 100 µM | > 100 µM | > 100 µM | 1.89 µM | 5.16 µM | > 100 µM | – | 9.7 µM | 4.03 µM | > 100 µM | 5.47 µM | 9.05 µM |
| COC(=O)C1OC(O[C@H]2CC[C@]3(C)[C@H]4CC=C5[C@@H]6CC(C)(C)CC[C@]6(C(=O)OC6OCC(O)C(O)C6OC6OC(C)C(OC7OCC(OC8OCC(O)C(O)C8O)C(O)C7O)C(O)C6O)[C@H](O)C[C@@]5(C)[C@]4(C)CC[C@H]3C2(C)C)C(O)C(O)C1O (some centres undefined) | 11.9 µM | 8.01 µM | 3.56 µM | 15.5 µM | – | 8.9 µM | 3.09 µM | 3.36 µM | 13.9 µM | 6.23 µM | – | – | – | – | – | – | – | – | – | – |
| O/C(=C\c1nc2ccccc2nc1NC12CC3CC(CC(C3)C1)C2)c1ccc(Br)cc1 | > 10 µM | > 10 µM | > 10 µM | > 10 µM | – | > 10 µM | > 10 µM | > 10 µM | > 10 µM | > 10 µM | – | – | – | – | – | – | – | – | – | – |
| CC(C)(C)OC(=O)n1c(-c2ccccc2F)cc(=O)c2cc3c(cc21)OCO3 | > 58.7 µM | > 100 µM | – | > 100 µM | > 34.6 µM | 0.368 µM | – | – | > 100 µM | – | – | – | – | – | – | – | – | – | – | – |
| O=[N+]([O-])c1ccc(C2=Nc3ccccc3SC(c3ccccc3)C2)cc1 (centres undefined) | 36.2 µM | 36.6 µM | 25.8 µM | – | 45.2 µM | – | 31.8 µM | 32.2 µM | 63.3 µM | 54 µM | – | – | – | – | – | – | – | – | – | – |
| COC(=O)[C@H](C)NC(=O)[C@H](CSC)N1C(=O)N[C@@H](C(C)C)C1=O | > 100 µM | > 100 µM | > 100 µM | > 100 µM | > 100 µM | > 100 µM | > 100 µM | > 100 µM | – | > 100 µM | – | – | – | – | – | – | – | – | – | – |
| c1ccc(-c2cnc(-c3ccc(-c4ncc(-c5ccccc5)o4)cc3)o2)cc1 | > 100 µM | > 100 µM | > 100 µM | > 100 µM | – | > 100 µM | > 100 µM | > 100 µM | > 100 µM | > 100 µM | – | – | – | – | – | – | – | – | – | – |
| CC1=CC(=O)C(C(O)(C(F)(F)F)C(F)(F)F)C(C)(C)C1 (centres undefined) | > 10 µM | – | > 10 µM | > 10 µM | > 10 µM | > 10 µM | > 10 µM | > 10 µM | > 10 µM | > 10 µM | – | – | – | – | – | – | – | – | – | – |
| C[C@]12CC[C@H](O)C=C1CC[C@@H]1[C@@H]2CC[C@]2(C)C(c3ccc(=O)oc3)CC[C@]12O (some centres undefined) | – | 0.321 µM | 0.041 µM | – | – | 0.293 µM | 0.188 µM | 0.0773 µM | 0.0269 µM | 0.154 µM | – | – | – | – | – | – | – | – | – | – |
